Literature values as cited in patent US20160376245A1, “IMPURITY OF FAMOTIDINE” (GAVIS PHARMACEUTICALS, priority 2015, published 2016).
Where two headings read alike, the source gives them in different places.

- solubility (in ethanol): practically insoluble
- solubility (in glacial acetic acid): freely soluble
- solubility (in methanol): slightly soluble
- solubility (in water): very slightly soluble
SMILES: NC(N)=Nc1nc(CSCCC(N)=NS(N)(=O)=O)cs1 [Famotidine, N-(aminosulfonyl)-3-[[[2-[(diaminomethylene)amino]-4-thiazolyl]methyl]thio] propanimidamide]
